The test system of test [1] is Rat Liver ER Neutral α-Glucosidase. The experiment in a line: Endoplasmic reticulum α-glucosidase activity assay. Type of test: biochemical. An excerpt:
Betulinic acid inhibits yeast α-glucosidase activity and interferes with N-linked glycan modifications to cell-surface intercellular adhesion molecule-1 (ICAM-1) in human lung carcinoma A549 cells in a similar manner to castanospermine, an inhibitor of endoplasmic reticulum α-glucosidases I and II [66]. […] Taken together, these considerations prompted us to evaluate a series of lupanes with amide function or polyamine chain 11, 12, 16, 18, and 22–26 for α-glucosidase inhibition. Initially, they were screened against α-glucosidase of S. cerevisiae as an accessible and high-throughput model. Confirmatory experiments were performed on isolated rough endoplasmic reticulum vesicles from rat liver, which contain neutral α-glucosidases I and II in a membrane-bound form.
Endoplasmic reticulum was isolated from hepatocytes of decapitated male Sprague-Dawley rats, which were starved overnight and sacrificed the next morning. All experiments were approved by Volgograd regional ethic committee. The whole procedure was performed at 4 °C. In brief, a fresh tissue sample from an animal was washed twice with 10 mL of PBS to remove residual blood. The tissue was placed on a paper towel in order to absorb excess liquid and blood clots, if present. It was cut further into small pieces (1.5–2 cm) and washed once more. […] Homogenate was centrifuged at 1000× g for 10 min at 4 °C. After removal of the floating lipid layer by aspiration, supernatant was separated and centrifuged at 12,000× g for 15 min. at 4 °C. The supernatant fraction, which is the post mitochondrial fraction (PMF), was used for isolation of rough endoplasmic reticulum (RER) enriched microsomes by precipitation with 8 mM CaCl2 added dropwise. The final concentration of CaCl2 was 7 mM. Resulting sample was centrifuged at 8000 g for 10 min. at 4 °C. The supernatant was discarded, and the pellet was suspended in isotonic extraction buffer (0.3 mL of buffer for each g of original tissue). The suspension was homogenized completely to afford RER enriched microsomes. In a 96-well flat transparent plate 25 µL of the isolated RER microsomes were incubated with 50 µL of test compounds in 67 mM PBS (pH 6.8) at 37 °C for 10 min. Then, p-nitrophenyl-α-D-glucopyranoside (Sigma #N1377, St. Louis, MO, USA) was added to 1 mM final concentration and increase in absorbance was recorded for 42 min at 405 nm wavelength with Infinite M200 PRO microplate reader (Tecan, Austria). Concentration of RER microsomes was adjusted to achieve an increase in optical density of ~0.2 in control samples after 30 min. of incubation. Test compounds were prepared as described above for the yeast α-glucosidase assay.

Test [2] addresses Yeast α-Glucosidase. The experiment in a line: Yeast α-glucosidase activity assay. To be noted: pH 6.8, 37 °C, p-nitrophenyl-α-D-glucopyranoside 1 mM; read-out: Yeast α-Glucosidase, IC50 ± SE. Type of test: biochemical, S. cerevisiae. As to the method: Taken together, these considerations prompted us to evaluate a series of lupanes with amide function or polyamine chain 11, 12, 16, 18, and 22–26 for α-glucosidase inhibition. Initially, they were screened against α-glucosidase of S. cerevisiae as an accessible and high-throughput model. Confirmatory experiments were performed on isolated rough endoplasmic reticulum vesicles from rat liver, which contain neutral α-glucosidases I and II in a membrane-bound form.
In a 96-well flat transparent plate, the 0.12 U/mL enzyme solution (EC 3.2.1.20, expressed in S. cerevisiae, Sigma #G0660, St. Louis, MO, USA) was incubated with test compounds in 67 mM PBS (pH 6.8) at 37 °C for 5 min. Then, p-nitrophenyl-α-D-glucopyranoside (Sigma #N1377, St. Louis, MO, USA) was added to 1 mM final concentration and an increase in absorbance was recorded for 15 min at 405 nm wavelength with Infinite M200 PRO microplate reader (Tecan, Austria). Test compounds were dissolved in DMSO and diluted to the desired concentration in 67 mM PBS (pH 6.8) supplemented with 0.01% Tween 80 to avoid aggregation. Final DMSO concentration was <0.25% in sample wells, and it was also introduced in control and blank wells. […] Due to the absence of normal distribution of data, a Mann–Whitney U-test was used to determine statistical significance versus enzyme control using GraphPad Prism 8.0.1.

Test [3] has as its system NCI-H522. On the set-up: method as in PMID 25405285. The following applies: standard drugs used by NCI as control; cited from earlier work.
Test [4] concerns SF-295. Further details: method as in PMID 25405285. To be noted: standard drugs used by NCI as control; cited from earlier work.
The subject of test [5] is HCT-116. Further details: method as in PMID 25405285. To be noted: standard drugs used by NCI as control; cited from earlier work.
Test [6] deals with HCT-15. On the set-up: method as in PMID 25405285. To be noted: standard drugs used by NCI as control; cited from earlier work.
The subject of test [7] is NCI-H23. On the set-up: method as in PMID 25405285. The following applies: standard drugs used by NCI as control; cited from earlier work.
Test [8] relates to HOP-92. Further details: method as in PMID 25405285. To be noted: standard drugs used by NCI as control; cited from earlier work.
The test system of test [9] is BT-549. Further details: method as in PMID 25405285. To be noted: standard drugs used by NCI as control; cited from earlier work.
The subject of test [10] is LOX IMVI. On the set-up: method as in PMID 25405285. The following applies: standard drugs used by NCI as control; cited from earlier work.
In test [11] the test system is IGROV1. Further details: method as in PMID 25405285. The following applies: standard drugs used by NCI as control; cited from earlier work.
In test [12] the test system is A549/ATCC. On the set-up: method as in PMID 25405285. To be noted: standard drugs used by NCI as control; cited from earlier work.
Test [13] concerns HS 578T. On the set-up: method as in PMID 25405285. To be noted: standard drugs used by NCI as control; cited from earlier work.
Test [14] concerns MDA-MB-435. Further details: method as in PMID 25405285. The following applies: standard drugs used by NCI as control; cited from earlier work.
Test [15] has as its system SN12C. On the set-up: method as in PMID 25405285. To be noted: standard drugs used by NCI as control; cited from earlier work.
Test [16] relates to M14. Further details: method as in PMID 25405285. The following applies: standard drugs used by NCI as control; cited from earlier work.
The subject of test [17] is SNB-19. Further details: method as in PMID 25405285. The following applies: standard drugs used by NCI as control; cited from earlier work.
The test system of test [18] is MALME-3M. On the set-up: method as in PMID 25405285. The following applies: standard drugs used by NCI as control; cited from earlier work.
Test [19] relates to MCF7. On the set-up: method as in PMID 25405285. The following applies: standard drugs used by NCI as control; cited from earlier work.
The subject of test [20] is T-47D. On the set-up: method as in PMID 25405285. The following applies: standard drugs used by NCI as control; cited from earlier work.

In the case of `C=C(C)[C@@H]1CC[C@]2(C(=O)NCCNCCNCCN)CC[C@]3(C)[C@H](CC[C@@H]4[C@@]5(C)CCC(=O)C(C)(C)[C@@H]5CC[C@]43C)[C@@H]12` [Compound 11], the “Rat Liver ER Neutral α-Glucosidase Inhibition, m ± SD” value in [1] (10 μM) worked out at 15.03 ± 8.98%; in [1] (100 μM), 43.60 ± 7.98 %. In addition, the IC50 – broadly, the concentration that inhibits the measured activity by half – in [2] amounted to 4840 ± 1020 nM.

Regarding `COc1cccc2c1C(=O)c1c(O)c3c(c(O)c1C2=O)C[C@@](O)(C(=O)CO)C[C@@H]3O[C@H]1C[C@H](N)[C@H](O)[C@H](C)O1` [DRB, doxorubicin], the GI50 (as a rule, the concentration at which growth is held to half of that of the control) in test [3] is 30 nM; in test [4] it was 100 nM; in test [5], 80 nM; in test [6] it was 6460 nM; in [7] it was 150 nM; in test [8], 100 nM. In addition, the GI50 in test [9] was 230 nM; in test [10] it was 70 nM; in test [11], 170 nM; in test [12], 60 nM; in test [13] it was 330 nM; in test [14] it was 250 nM. The GI50 in test [15] was 70 nM; in [16] it was 180 nM; in test [17], 40 nM; in test [18] it was 120 nM; in test [19], 30 nM; in test [20], 60 nM.

(Values after publication PMC7587962, “Evaluation of Cytotoxicity and α-Glucosidase Inhibitory Activity of Amide and Polyamino-Derivatives of Lupane Triterpenoids” (Molecules, 2020).)
